Experimental data published in patent publication US10080761B2, “Method for treating recurring skin and mucous membrane diseases caused by HSV-1 and HSV-2” (priority 2013, dated 2018).

Test system: HSV-1 or HSV-2 infection
Assay: Treatment of a herpes relapse in patients with medium or severe recurring form (Example 1)
Type: in vivo
Settings: many years of earlier treatment, cream and pills

Nc1nc2c(ncn2COCCO)c(=O)[nH]1 [Aciclovir]
reduction of the number of relapses by previously used preparations: did not reduce the number of relapses
